From patent US20220281848A1, “PYRAZOLE-SUBSTITUTED PYRROLIDINONES AS HERBICIDES” (FMC Corporation, priority 2019, published 2022)

System: plants
Assay: Test D pre-emergence, other plants of Tables D1 and D3
Type: in vivo
Conditions: for damage to plant (100=total damage to plant; 0=no damage to plant), SORVU: preemergent, 20 DAA; for damage to plant, ALOMY / damage to plant, AVEFA / damage to plant, BEAVA / damage to plant, BROTE / damage to plant, BRSNN / damage to plant, CHEAL / damage to plant, GALAP / damage to plant, HORVW / damage to plant, KCHSC / damage to plant, LOLPE / damage to plant, POAAN / damage to plant, POLCO / damage to plant, SINAR / damage to plant, STEME / damage to plant, VERPE: pre-emergence, 100=total damage, 0=no damage
Method in brief: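 Seeds treated with herbicide safener; sown in soil; glasshouse, 16 h light, 65% humidity. Sprayed day 1 (pre) or ~day 12 (post). Spray in 0.2% v/v adjuvant. Scored 0–100 damage: 20 DAA pre, 15 d post.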

SMILES: CCn1nc([C@H]2CN(C)C(=O)[C@@H]2C(=O)Nc2cccc(F)c2F)c2cc(F)ccc21 [Compound 8]
- damage to plant (100=total damage to plant; 0=no damage to plant), SORVU (rate 250): 20
- damage to plant (100=total damage to plant; 0=no damage to plant), SORVU (rate 500): 30
- damage to plant, ALOMY (rate 15, 20 DAA): 0
- damage to plant, AVEFA (rate 15, 20 DAA): 0
- damage to plant, BEAVA (rate 15, 20 DAA): 0
- damage to plant, BROTE (rate 15, 20 DAA): 0
- damage to plant, BRSNN (rate 15, 20 DAA): 0
- damage to plant, CHEAL (rate 15, 20 DAA): 0
- damage to plant, GALAP (rate 15, 20 DAA): 0
- damage to plant, HORVW (rate 15, 20 DAA): 0
- damage to plant, KCHSC (rate 15, 20 DAA): 0
- damage to plant, LOLPE (rate 15, 20 DAA): 0
- damage to plant, POAAN (rate 15, 20 DAA): 0
- damage to plant, POLCO (rate 15, 20 DAA): 0
- damage to plant, SINAR (rate 15, 20 DAA): 0
- damage to plant, STEME (rate 15, 20 DAA): 0
- damage to plant, VERPE (rate 15, 20 DAA): 0
- damage to plant, ALOMY (rate 30, 20 DAA): 0
- damage to plant, AVEFA (rate 30, 20 DAA): 0
- damage to plant, BEAVA (rate 30, 20 DAA): 0
- damage to plant, BROTE (rate 30, 20 DAA): 0
- damage to plant, BRSNN (rate 30, 20 DAA): 0
- damage to plant, CHEAL (rate 30, 20 DAA): 0
- damage to plant, GALAP (rate 30, 20 DAA): 0
- damage to plant, HORVW (rate 30, 20 DAA): 0
- damage to plant, KCHSC (rate 30, 20 DAA): 0
- damage to plant, LOLPE (rate 30, 20 DAA): 0
- damage to plant, POAAN (rate 30, 20 DAA): 0
- damage to plant, POLCO (rate 30, 20 DAA): 0
- damage to plant, SINAR (rate 30, 20 DAA): 0
- damage to plant, STEME (rate 30, 20 DAA): 0
- damage to plant, VERPE (rate 30, 20 DAA): 0
- damage to plant, ALOMY (rate 60, 20 DAA): 0
- damage to plant, AVEFA (rate 60, 20 DAA): 0
- damage to plant, BEAVA (rate 60, 20 DAA): 0
- damage to plant, BROTE (rate 60, 20 DAA): 0
- damage to plant, BRSNN (rate 60, 20 DAA): 0
- damage to plant, CHEAL (rate 60, 20 DAA): 0
- damage to plant, GALAP (rate 60, 20 DAA): 0
- damage to plant, HORVW (rate 60, 20 DAA): 0
- damage to plant, KCHSC (rate 60, 20 DAA): 0
- damage to plant, LOLPE (rate 60, 20 DAA): 0
- damage to plant, POAAN (rate 60, 20 DAA): 0
- damage to plant, POLCO (rate 60, 20 DAA): 0
- damage to plant, SINAR (rate 60, 20 DAA): 0
- damage to plant, STEME (rate 60, 20 DAA): 0
- damage to plant, VERPE (rate 60, 20 DAA): 0
- damage to plant, ALOMY (rate 130, 20 DAA): 0
- damage to plant, AVEFA (rate 130, 20 DAA): 0
- damage to plant, BEAVA (rate 130, 20 DAA): 0
- damage to plant, BROTE (rate 130, 20 DAA): 0
- damage to plant, BRSNN (rate 130, 20 DAA): 0
- damage to plant, CHEAL (rate 130, 20 DAA): 0
- damage to plant, GALAP (rate 130, 20 DAA): 0
- damage to plant, HORVW (rate 130, 20 DAA): 0
- damage to plant, KCHSC (rate 130, 20 DAA): 0
- damage to plant, LOLPE (rate 130, 20 DAA): 0
- damage to plant, POAAN (rate 130, 20 DAA): 0
- damage to plant, POLCO (rate 130, 20 DAA): 0
- damage to plant, SINAR (rate 130, 20 DAA): 0
- damage to plant, STEME (rate 130, 20 DAA): 0
- damage to plant, VERPE (rate 130, 20 DAA): 0
- damage to plant, ALOMY (rate 250, 20 DAA): 0
- damage to plant, AVEFA (rate 250, 20 DAA): 0
- damage to plant, BEAVA (rate 250, 20 DAA): 0
- damage to plant, BROTE (rate 250, 20 DAA): 0
- damage to plant, BRSNN (rate 250, 20 DAA): 0
- damage to plant, CHEAL (rate 250, 20 DAA): 0
- damage to plant, GALAP (rate 250, 20 DAA): 0
- damage to plant, HORVW (rate 250, 20 DAA): 0
- damage to plant, KCHSC (rate 250, 20 DAA): 0
- damage to plant, LOLPE (rate 250, 20 DAA): 0
- damage to plant, POAAN (rate 250, 20 DAA): 0
- damage to plant, POLCO (rate 250, 20 DAA): 0
- damage to plant, SINAR (rate 250, 20 DAA): 0
- damage to plant, STEME (rate 250, 20 DAA): 0
- damage to plant, VERPE (rate 250, 20 DAA): 0
- damage to plant, ALOMY (rate 500, 20 DAA): 10
- damage to plant, AVEFA (rate 500, 20 DAA): 10
- damage to plant, BEAVA (rate 500, 20 DAA): 0
- damage to plant, BROTE (rate 500, 20 DAA): 0
- damage to plant, BRSNN (rate 500, 20 DAA): 10
- damage to plant, CHEAL (rate 500, 20 DAA): 0
- damage to plant, GALAP (rate 500, 20 DAA): 0
- damage to plant, HORVW (rate 500, 20 DAA): 10
- damage to plant, KCHSC (rate 500, 20 DAA): 0
- damage to plant, LOLPE (rate 500, 20 DAA): 0
- damage to plant, POAAN (rate 500, 20 DAA): 60
- damage to plant, POLCO (rate 500, 20 DAA): 0
- damage to plant, SINAR (rate 500, 20 DAA): 0
- damage to plant, STEME (rate 500, 20 DAA): 0
- damage to plant, VERPE (rate 500, 20 DAA): 0
